Experimental data taken from ChEMBL document CHEMBL3046079, “Synthesis, herbicidal activity, and mode of action of IR 5790” (J Agric Food Chem, 2001).
Values after ≈ are worked out from the molar mass of the structure shown.

Tests used:
[1] = Aqueous solubility of the compound; type: physicochemical; settings: water
[2] = molecular target: T1, Putative protoporphyrinogen IX oxidase (Cucumis sativus) (UniProt C6L817); experiment: Inhibition of protoporphyrin oxidase in Cucumis sativus (cucumber) cotyledon disc assessed as increase in extraplastidic protoporphyrin 9 accumulation at 100 uM incubated in dim light for 2 hr by HPLC analysis relative to control
T1 sequence (whole entry): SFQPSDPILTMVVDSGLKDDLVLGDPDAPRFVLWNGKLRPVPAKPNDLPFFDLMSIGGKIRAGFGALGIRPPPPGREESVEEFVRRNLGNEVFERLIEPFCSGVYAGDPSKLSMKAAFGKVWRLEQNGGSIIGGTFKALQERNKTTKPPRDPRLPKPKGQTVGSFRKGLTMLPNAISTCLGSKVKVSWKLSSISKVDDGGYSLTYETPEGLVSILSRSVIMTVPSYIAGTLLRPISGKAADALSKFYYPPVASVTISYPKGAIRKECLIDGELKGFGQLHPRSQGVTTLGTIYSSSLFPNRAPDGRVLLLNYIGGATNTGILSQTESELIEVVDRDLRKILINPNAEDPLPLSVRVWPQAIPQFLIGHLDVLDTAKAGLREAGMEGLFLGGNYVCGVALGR

[3] = tested on: Sorghum bicolor; experiment: Post-emergence herbicidal activity against Sorghum bicolor assessed as injury at 150 g/ha applied at 15 days post-sowing measured after 15 days relative to control; type: functional
[4] = tested on: Persicaria maculosa; experiment: Pre-emergence herbicidal activity against Persicaria maculosa assessed as injury at 50 g/ha applied at 24 hr post-sowing measured after 28 days relative to control; type: functional
[5] = tested on: Matricaria chamomilla; experiment: Pre-emergence herbicidal activity against Matricaria chamomilla assessed as injury at 50 g/ha applied at 24 hr post-sowing measured after 28 days relative to control; type: functional
[6] = tested on: Galium aparine; experiment: Pre-emergence herbicidal activity against Galium aparine assessed as injury at 50 g/ha applied at 24 hr post-sowing measured after 28 days relative to control; type: functional
[7] = tested on: Brassica napus; experiment: Phytotoxicity against Brassica napus (oilseed rape) assessed as injury at 150 g/ha applied as pre-emergent treatment at 24 hr post-sowing measured after 28 days relative to control; type: organism-based; settings: in vivo, other, 672 h
[8] = tested on: Phalaris arundinacea; experiment: Pre-emergence herbicidal activity against Phalaris arundinacea assessed as injury at 150 g/ha applied at 24 hr post-sowing measured after 28 days relative to control; type: functional
[9] = tested on: Digitaria sanguinalis; experiment: Pre-emergence herbicidal activity against Digitaria sanguinalis (hairy crabgrass) assessed as injury at 150 g/ha applied at 24 hr post-sowing measured after 28 days relative to control; type: functional
[10] = tested on: Panicum dichotomiflorum; experiment: Post-emergence herbicidal activity against Panicum dichotomiflorum assessed as injury at 150 g/ha applied at 15 days post-sowing measured after 15 days relative to control; type: functional
[11] = tested on: Alopecurus myosuroides; experiment: Post-emergence herbicidal activity against Alopecurus myosuroides assessed as injury at 150 g/ha applied at 15 days post-sowing measured after 15 days relative to control; type: functional
[12] = tested on: Avena fatua; experiment: Post-emergence herbicidal activity against Avena fatua assessed as injury at 150 g/ha applied at 15 days post-sowing measured after 15 days relative to control; type: functional
[13] = tested on: Stellaria media; experiment: Post-emergence herbicidal activity against Stellaria media assessed as injury at 150 g/ha applied at 15 days post-sowing measured after 15 days relative to control; type: functional
[14] = tested on: Galium aparine; experiment: Post-emergence herbicidal activity against Galium aparine assessed as injury at 150 g/ha applied at 15 days post-sowing measured after 15 days relative to control; type: functional
[15] = tested on: Glycine max; experiment: Phytotoxicity against Glycine max (soybean) assessed as injury at 150 g/ha applied as post-emergent treatment at 15 days post-sowing measured after 15 days relative to control; type: organism-based; settings: in vivo, other, 360 h
[16] = tested on: Triticum aestivum; experiment: Phytotoxicity against Triticum aestivum (wheat) assessed as injury at 5 g/ha applied as post-emergent treatment at 15 days post-sowing measured after 15 days relative to control; type: organism-based; settings: in vivo, other, 360 h
[17] = tested on: Alopecurus myosuroides; experiment: Post-emergence herbicidal activity against Alopecurus myosuroides assessed as injury at 5 g/ha applied at 15 days post-sowing measured after 15 days relative to control; type: functional
[18] = tested on: Persicaria maculosa; experiment: Post-emergence herbicidal activity against Persicaria maculosa assessed as injury at 5 g/ha applied at 15 days post-sowing measured after 15 days relative to control; type: functional
[19] = tested on: Triticum aestivum; experiment: Phytotoxicity against Triticum aestivum (wheat) assessed as injury at 15 g/ha applied as post-emergent treatment at 15 days post-sowing measured after 15 days relative to control; type: organism-based; settings: in vivo, other, 360 h
[20] = tested on: Oryza sativa; experiment: Phytotoxicity against Oryza sativa (rice) assessed as injury at 15 g/ha applied as post-emergent treatment at 15 days post-sowing measured after 15 days relative to control; type: organism-based; settings: in vivo, other, 360 h
[21] = tested on: Sorghum bicolor; experiment: Post-emergence herbicidal activity against Sorghum bicolor assessed as injury at 15 g/ha applied at 15 days post-sowing measured after 15 days relative to control; type: functional
[22] = tested on: Echinochloa crus-galli; experiment: Post-emergence herbicidal activity against Echinochloa crus-galli (barnyard grass) assessed as injury at 15 g/ha applied at 15 days post-sowing measured after 15 days relative to control; type: functional
[23] = tested on: Portulaca oleracea; experiment: Post-emergence herbicidal activity against Portulaca oleracea assessed as injury at 15 g/ha applied at 15 days post-sowing measured after 15 days relative to control; type: functional
[24] = tested on: Alopecurus myosuroides; experiment: Pre-emergence herbicidal activity against Alopecurus myosuroides assessed as injury at 150 g/ha applied at 24 hr post-sowing measured after 28 days relative to control; type: functional
[25] = tested on: Stellaria media; experiment: Pre-emergence herbicidal activity against Stellaria media assessed as injury at 150 g/ha applied at 24 hr post-sowing measured after 28 days relative to control; type: functional
[26] = tested on: Ipomoea purpurea; experiment: Pre-emergence herbicidal activity against Ipomoea purpurea (common morning-glory) assessed as injury at 150 g/ha applied at 24 hr post-sowing measured after 28 days relative to control; type: functional
[27] = tested on: Galium aparine; experiment: Pre-emergence herbicidal activity against Galium aparine assessed as injury at 150 g/ha applied at 24 hr post-sowing measured after 28 days relative to control; type: functional
[28] = tested on: Abutilon theophrasti; experiment: Pre-emergence herbicidal activity against Abutilon theophrasti (velvetleaf) assessed as injury at 150 g/ha applied at 24 hr post-sowing measured after 28 days relative to control; type: functional
[29] = tested on: Phalaris arundinacea; experiment: Post-emergence herbicidal activity against Phalaris arundinacea assessed as injury at 50 g/ha applied at 15 days post-sowing measured after 15 days relative to control; type: functional
[30] = tested on: Veronica persica; experiment: Post-emergence herbicidal activity against Veronica persica assessed as injury at 50 g/ha applied at 15 days post-sowing measured after 15 days relative to control; type: functional
[31] = tested on: Solanum nigrum; experiment: Post-emergence herbicidal activity against Solanum nigrum (black nightshade) assessed as injury at 50 g/ha applied at 15 days post-sowing measured after 15 days relative to control; type: functional
[32] = tested on: Portulaca oleracea; experiment: Post-emergence herbicidal activity against Portulaca oleracea assessed as injury at 50 g/ha applied at 15 days post-sowing measured after 15 days relative to control; type: functional
[33] = tested on: Ipomoea purpurea; experiment: Post-emergence herbicidal activity against Ipomoea purpurea (common morning-glory) assessed as injury at 50 g/ha applied at 15 days post-sowing measured after 15 days relative to control; type: functional
[34] = tested on: Calystegia sepium; experiment: Post-emergence herbicidal activity against Calystegia sepium assessed as injury at 50 g/ha applied at 15 days post-sowing measured after 15 days relative to control; type: functional

Compound `C#CCOc1cc(-n2nc(C(C)(C)C)sc2=O)c(Cl)cc1Cl` has a solubility [1] of 1.1 µg/mL (≈ 3.08 µM), a fold change (FC) [2] of 292 and an Activity [3] of 10%. For the same compound, the Activity [4] was 0%, the Activity [5] was 0% and the Activity [6] was 0%. For the same compound, the Activity [7] was 0%, the Activity [8] was 0% and the Activity [9] was 90%. For the same compound, the Activity [10] was 90%, the Activity [11] was 70% and the Activity [12] was 30%. It also gave an Activity [13] of 0%, an Activity [14] of 50% and an Activity [15] of 30%. For the same compound, the Activity [16] was 0%, the Activity [17] was 0% and the Activity [18] was 30%. It also gave an Activity [19] of 0%, an Activity [20] of 0% and an Activity [21] of 10%. For the same compound, the Activity [22] was 0%, the Activity [23] was 70% and the Activity [24] was 70%. For the same compound, the Activity [25] was 30%, the Activity [26] was 0% and the Activity [27] was 0%. The Activity [28] was 0%, the Activity [29] was 30% and the Activity [30] was 0%. The Activity [31] was 90%, the Activity [32] was 90% and the Activity [33] was 90%. For the same compound, the Activity [34] was 70%.
